From patent US20140296212A1, “SUBSTITUTED PHENOXYPROPYLCYCLOAMINE DERIVATIVES AS HISTAMINE-3 (H3) RECEPTOR LIGANDS” (CEPHALON, INC., priority 2009, published 2014) come the findings set out here.

SMILES strings stand for the structures.

The target of one experiment is T1, human H3 receptor (Homo sapiens, UniProt Q9Y5N1).
T1 construct: expressed in transfected cells
T1 sequence (Q9Y5N1 whole entry): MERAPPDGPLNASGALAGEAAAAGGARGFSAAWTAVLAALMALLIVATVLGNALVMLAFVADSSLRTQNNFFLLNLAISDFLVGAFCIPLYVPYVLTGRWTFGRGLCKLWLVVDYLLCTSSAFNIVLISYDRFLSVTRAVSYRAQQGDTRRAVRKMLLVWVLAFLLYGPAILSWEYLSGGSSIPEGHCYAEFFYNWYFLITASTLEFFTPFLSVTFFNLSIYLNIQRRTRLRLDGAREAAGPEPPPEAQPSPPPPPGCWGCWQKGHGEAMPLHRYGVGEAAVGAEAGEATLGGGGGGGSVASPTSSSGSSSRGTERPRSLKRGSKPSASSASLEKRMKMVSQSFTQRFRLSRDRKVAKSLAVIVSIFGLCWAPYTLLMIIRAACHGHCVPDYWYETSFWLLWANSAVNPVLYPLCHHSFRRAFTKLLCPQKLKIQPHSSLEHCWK
The experiment in a line: Human H3 radioligand binding ([3H]-N-alpha-methylhistamine, SPA). The following applies: membranes of CHO cells expressing human H3. On the procedure: Cell pellets were resuspended in 5 mM Tris-HCl, pH 7.5 with 5 nM EDTA and a cocktail of protease inhibitors (Complete Protease Inhibitor Tablets, Roche Diagnostics). Cells were disrupted using a polytron cell homogenizer and the suspension was centrifuged at 1000×g for 10 minutes at 4° C. The pellet was discarded and the supernatant centrifuged at 40,000×g for 30 min at 4° C. This membrane pellet was washed in membrane buffer containing 50 mM Tris-HCl, pH 7.5 with 0.6 mM EDTA, 5 mM MgCl2 and protease inhibitors, recentrifuged as above and the final pellet resuspended in membrane buffer plus 250 mM sucrose and frozen at −80° C.
(§1) Membranes were resuspended in 50 mM Tris HCl (pH 7.4), 5 mM MgCl2, 0.1% BSA. The membrane suspensions (10 μg protein per well) were incubated in a 96 well microtiter plate with [^3H]-N-alpha-methylhistamine (approximately 1 nM final concentration), test compounds at various concentrations (0.01 nM-30 μM) and scintillation proximity beads (Perkin Elmer, FlashBlueGPCR Scintillating Beads) in a final volume of 80 μl for 4 hours at room temperature, protected from light. Non-specific binding was determined in the presence of 10 μM clobenpropit. Radioligand bound to receptor, and therefore in proximity to the scintillation beads, was measured using a MicroBeta scintillation counter.
The compound `CO/N=C(\CN1CCCCC1)c1ccc(OCCCN2CCC[C@H]2C)cc1` [Example 159] yielded a Ki of 0.1 to 100 nM.

`O=C(CN1CCc2ccccc2C1)c1ccc(OCCCN2CCCCC2)cc1` [Example 4, 2-(3,4-Dihydro-1H-isoquinolin-2-yl)-1-[4-(3-piperidin-1-yl-propoxy)-phenyl]-ethanone] came in with a Ki of 0.1 to 100 nM.

For `CC(C(=O)c1ccc(OCCCN2CCCCC2)cc1)N1CCSCC1` (centres unmarked) [Example 34, 1-[4-(3-Piperidin-1-yl-propoxy)-phenyl]-2-thiomorpholin-4-yl-propan-1-one], the Ki lay in the range of 0.1 to 100 nM.

`CC(C(=O)c1ccc(OCCCN2CCCC2)cc1)N1CCN(c2ccccc2)CC1` (centres unmarked) [Example 30, 2-(4-Phenyl-piperazin-1-yl)-1-[4-(3-pyrrolidin-1-yl-propoxy)-phenyl]-propan-1-one] displayed a Ki of 0.1 to 100 nM.

`CON=C(c1ccc(OCCCN2CCCC2C)cc1)C(C)N1CCCCC1` (centres unmarked) [Example 169]: the Ki lay in the range of 0.1 to 100 nM.

On to `CO/N=C(/CN1CCCCC1)c1ccc(OCCCN2CCC[C@H]2C)cc1` [Example 161], for which the Ki was in the range of 0.1 to 100 nM.

Compound `C[C@@H]1CC[C@@H](C)N1CCCOc1ccc(C(=O)CN2CCCCC2)cc1` [Example 12, 1-{4-[3-((2R,5R)-2,5-Dimethyl-pyrrolidin-1-yl)-propoxy]-phenyl}-2-piperidin-1-yl-ethanone] yielded a Ki of 0.1 to 100 nM.

Consider `CC(C)N1CCN(CCCOc2ccc(C(=O)CN3CCCCC3)cc2)CC1` [Example 16, 1-{4-[3-(4-Isopropyl-piperazin-1-yl)-propoxy]-phenyl}-2-piperidin-1-yl-ethanone], for which the Ki is 0.1 to 100 nM.

The compound `CC1CCCN1CCCOc1ccc(/C(CN2CCN(c3ccccc3)CC2)=N/OC(C)(C)C)cc1` (centres unmarked) [Example 166] displayed a Ki of 0.1 to 100 nM.

As for `CC1CCCN1CCCOc1ccc(C(=O)CN2CCN(c3ccccc3)CC2)cc1` (centres unmarked) [Example 18, 1-{4-[3-(2-Methyl-pyrrolidin-1-yl)-propoxy]-phenyl}-2-(4-phenyl-piperazin-1-yl)-ethanone], the Ki is 0.1 to 100 nM.

On to `CON=C(c1ccc(OCCCN2CCCCC2)cc1)C(C)N1CCCCC1` (centres unmarked) [Example 163], for which the inhibition constant Ki lay in the range of 0.1 to 100 nM.

In turn, `C[C@H]1CCCN1CCCOc1ccc(C(=O)CN2CCCCC2)cc1` [Example 13, 1-{4-[3-((S)-2-Methyl-pyrrolidin-1-yl)-propoxy]-phenyl}-2-piperidin-1-yl-ethanone] registered a Ki of 0.1 to 100 nM.

As for `CC(C(=O)c1ccc(OCCCN2CCCC2)cc1)N1CCCC1` (centres unmarked) [Example 23, 2-Pyrrolidin-1-yl-1-[4-(3-pyrrolidin-1-yl-propoxy)-phenyl]-propan-1-one], the Ki is 0.1 to 100 nM.

For the compound `CC(=O)N1CCN(C(C)C(=O)c2ccc(OCCCN3CCCC3C)cc2)CC1` (centres unmarked) [Example 33, 2-(4-Acetyl-piperazin-1-yl)-1-{4-[3-(2-methyl-pyrrolidin-1-yl)-propoxy]-phenyl}-propan-1-one], the Ki is 0.1 to 100 nM.

In turn, `CC1CCCN1CCCOc1ccc(C(=O)C(C)N2CCN(c3ccccc3)CC2)cc1` (centres unmarked) [Example 28, 1-{4-[3-(2-Methyl-pyrrolidin-1-yl)-propoxy]-phenyl}-2-(4-phenyl-piperazin-1-yl)-propan-1-one] displayed a Ki of 0.1 to 100 nM.

Compound `CC1CCCN1CCCOc1ccc(C(=O)C(C)N2CCCC2)cc1` (centres unmarked) [Example 24, 1-{4-[3-(2-Methyl-pyrrolidin-1-yl)-propoxy]-phenyl}-2-pyrrolidin-1-yl-propan-1-one] displayed a Ki of 0.1 to 100 nM.

In turn, `O=C(CN1CCCCC1)c1ccc(OCCCN2CCCC2)cc1` [Example 3, 2-Piperidin-1-yl-1-[4-(3-pyrrolidin-1-yl-propoxy)-phenyl]-ethanone] gave a Ki of 0.1 to 100 nM.

Turning to `CC1CCCCN1CCCOc1ccc(C(=O)CN2CCCCC2)cc1` (centres unmarked) [Example 10, 1-{4-[3-(2-Methyl-piperidin-1-yl)-propoxy]-phenyl}-2-piperidin-1-yl-ethanone], the Ki was 0.1 to 100 nM.

As for `CC(C(=O)c1ccc(OCCCN2CCCC2)cc1)N1CCOCC1` (centres unmarked) [Example 25, 2-Morpholin-4-yl-1-[4-(3-pyrrolidin-1-yl-propoxy)-phenyl]-propan-1-one], the Ki was 0.1 to 100 nM.

With `CC1CCCC(C)N1CCCOc1ccc(C(=O)CN2CCCCC2)cc1` (centres unmarked) [Example 11, 1-{4-[3-(2,6-Dimethyl-piperidin-1-yl)-propoxy]-phenyl}-2-piperidin-1-yl-ethanone], the Ki was 0.1 to 100 nM.

Turning to `O=C(CN1CCc2ccccc2C1)c1ccc(OCCCN2CCCC2)cc1` [Example 5, 2-(3,4-Dihydro-1H-isoquinolin-2-yl)-1-[4-(3-pyrrolidin-1-yl-propoxy)-phenyl]-ethanone], the Ki was 0.1 to 100 nM.

`CC(C(=O)c1ccc(OCCCN2CCCCC2)cc1)N1CCN(c2ccccc2)CC1` (centres unmarked) [Example 31, 2-(4-Phenyl-piperazin-1-yl)-1-[4-(3-piperidin-1-yl-propoxy)-phenyl]-propan-1-one] had a Ki of 0.1 to 100 nM.

The compound `CC(=O)N1CCN(C(C)C(=O)c2ccc(OCCCN3CCCCC3)cc2)CC1` (centres unmarked) [Example 32, 2-(4-Acetyl-piperazin-1-yl)-1-[4-(3-piperidin-1-yl-propoxy)-phenyl]-propan-1-one] came in with a Ki of 0.1 to 100 nM.

`O=C(CN1Cc2ccccc2C1)c1ccc(OCCCN2CCCCC2)cc1` [Example 6, 2-(1,3-Dihydro-isoindol-2-yl)-1-[4-(3-piperidin-1-yl-propoxy)-phenyl]-ethanone] came in with a Ki of 0.1 to 100 nM.

`CC(C)O/N=C(\CN1CCOCC1)c1ccc(OCCCN2CCC[C@H]2C)cc1` [Example 171] came in with a Ki of 0.1 to 100 nM.

Turning to `O=C(CN1CCCCC1)c1ccc(OCCCN2CCCCC2)cc1` [Example 2, 2-Piperidin-1-yl-1-[4-(3-piperidin-1-yl-propoxy)-phenyl]-ethanone], the Ki is 0.1 to 100 nM.

In the case of `O=C(CN1CCN(c2ccccc2)CC1)c1ccc(OCCCN2CCCC2)cc1` [Example 17, 2-(4-Phenyl-piperazin-1-yl)-1-[4-(3-pyrrolidin-1-yl-propoxy)-phenyl]-ethanone], the Ki fell in the range of 0.1 to 100 nM.

`CC(C(=O)c1ccc(OCCCN2CCC[C@@H]2C)cc1)N1CCCCC1=O` (stereo partly drawn) [Example 36, 1-(1-Methyl-2-{4-[3-((S)-2-methyl-pyrrolidin-1-yl)-propoxy]-phenyl}-2-oxo-ethyl)-piperidin-2-one] returned a Ki of 101 to 500 nM.

As to `CC(C(=NOCc1ccccc1)c1ccc(OCCCN2CCCCC2)cc1)N1CCCCC1` (centres unmarked) [Example 164], the Ki fell in the range of 0.1 to 100 nM.

`O=C(CN1CCCc2ccccc21)c1ccc(OCCCN2CCCCC2)cc1` [Example 7, 2-(3,4-Dihydro-2H-quinolin-1-yl)-1-[4-(3-piperidin-1-yl-propoxy)-phenyl]-ethanone] showed a Ki of 0.1 to 100 nM.

In turn, `CC1CCCN1CCCOc1ccc(C(=O)C(C)N2CCSCC2)cc1` (centres unmarked) [Example 35, 1-{4-[3-(2-Methyl-pyrrolidin-1-yl)-propoxy]-phenyl}-2-thiomorpholin-4-yl-propan-1-one] came in with a Ki of 0.1 to 100 nM.

The compound `C[C@@H]1CCCN1CCCOc1ccc(/C(CN2CCOCC2)=N/OC2CCCCC2)cc1` [Example 170] had a Ki of 0.1 to 100 nM.

`C[C@@H]1CCCN1CCCOc1ccc(C(=O)CN2CCc3ccccc3C2)cc1` [Example 9, 2-(3,4-Dihydro-1H-isoquinolin-2-yl)-1-{4-[3-((R)-2-methyl-pyrrolidin-1-yl)-propoxy]-phenyl}-ethanone] returned a Ki of 0.1 to 100 nM.

`CC(C(=O)c1ccc(OCCCN2CCCC2)cc1)N1CCCCC1` (centres unmarked) [Example 14, 2-Piperidin-1-yl-1-[4-(3-pyrrolidin-1-yl-propoxy)-phenyl]-propan-1-one] yielded a Ki of 0.1 to 100 nM.

For the compound `CC(C(=O)c1ccc(OCCCN2CCCCC2)cc1)N1CCOCC1` (centres unmarked) [Example 26, 2-Morpholin-4-yl-1-[4-(3-piperidin-1-yl-propoxy)-phenyl]-propan-1-one], the Ki fell in the range of 0.1 to 100 nM.

The target in another experiment is T2, rat histamine H3 receptor (Rattus norvegicus, UniProt Q9QYN8).
T2 construct: encoding the entire 445-amino-acid rat histamine H3 receptor; expressed in transfected cells
T2 sequence (Q9QYN8 whole entry): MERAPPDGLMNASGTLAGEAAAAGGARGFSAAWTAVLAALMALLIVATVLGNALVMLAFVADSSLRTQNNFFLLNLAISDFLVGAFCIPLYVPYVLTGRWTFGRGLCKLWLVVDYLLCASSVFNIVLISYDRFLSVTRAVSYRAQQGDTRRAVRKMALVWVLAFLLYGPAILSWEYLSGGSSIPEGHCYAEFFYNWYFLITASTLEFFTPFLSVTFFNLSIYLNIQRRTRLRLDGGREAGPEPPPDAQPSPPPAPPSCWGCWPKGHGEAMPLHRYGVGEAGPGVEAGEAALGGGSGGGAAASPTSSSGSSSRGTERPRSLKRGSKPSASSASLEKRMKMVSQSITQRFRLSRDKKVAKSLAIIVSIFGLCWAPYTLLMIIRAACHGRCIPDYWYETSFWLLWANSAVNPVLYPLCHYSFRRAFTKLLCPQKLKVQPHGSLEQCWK
The experiment in a line: Rat H3 radioligand binding ([3H]-N-alpha-methylhistamine, SPA).
Details: not given
Excerpt: The rat H3 receptor cDNA was PCR amplified from reverse-transcribed RNA pooled from rat thalamus, hypothalamus, striatum and prefrontal cortex with a sequence corresponding to by #338-1672 of Genbank file #NM_053506, encoding the entire 445-amino-acid rat histamine H3 receptor. This was engineered into the pIRES-neo3 mammalian expression vector, which was stably transfected into the CHO-A3 cell line (Euroscreen, Belgium), followed by clonal selection by limiting dilution. Cells were harvested and cell pellets were frozen (−80° C.). Cell pellets were resuspended in 5 mM Tris-HCl, pH 7.5 with 5 nM EDTA and a cocktail of protease inhibitors (Complete Protease Inhibitor Tablets, Roche Diagnostics). Cells were disrupted using a polytron cell homogenizer and the suspension was centrifuged at 1000×g for 10 minutes at 4° C. The pellet was discarded and the supernatant centrifuged at 40,000×g for 30 min at 4° C. This membrane pellet was washed in membrane buffer containing 50 mM Tris-HCl, pH 7.5 with 0.6 mM EDTA, 5 mM MgCl2 and protease inhibitors, recentrifuged as above and the final pellet resuspended in membrane buffer plus 250 mM sucrose and frozen at −80° C.
as §1
`C[C@@H]1CCCN1CCCOc1ccc(C(=O)CN2CCOCC2)cc1` [Example 41, 1-{4-[3-((R)-2-Methyl-pyrrolidin-1-yl)-propoxy]-phenyl}-2-morpholin-4-yl-ethanone]: the Ki lay in the range of 0.1 to 100 nM.

In turn, `CC1CCCN1CCCOc1ccc(C(=O)CN2CCOCC2)cc1` (centres unmarked) [Example 1, 1-{4-[3-(2-Methyl-pyrrolidin-1-yl)-propoxy]-phenyl}-2-morpholin-4-yl-ethanone] came in with a Ki of 0.1 to 100 nM.

The compound `C[C@H]1CCCN1CCCOc1ccc(C(=O)CN2CCOCC2)cc1` [Example 42, 1-{4-[3-((S)-2-Methyl-pyrrolidin-1-yl)-propoxy]-phenyl}-2-morpholin-4-yl-ethanone] came in with a Ki of 501 to 1000 nM.
